# Test results reported in patent US3949090A, “Methods and compositions for improving feed efficiency in ruminants using dithiooxamide” (SmithKline Corporation, priority 1974, dated 1976).
# What was measured:
# protein deposition = conditions: compared with acetate; Potter et al., Eskeland et al.; cited from earlier work
# sheep = conditions: amino acid supplement; cited from earlier work
# [1] = test system: Microbial Deaminase (strained rumen fluid); assay: In vitro microbial deaminase inhibition (rumen fluid, alfalfa hay, grain mixture; 4 hours); format: cell-based; conditions: Table III, dithiooxamide 0 ppm, 240 min
# Method: (§1) The in vitro fermentation system contained 75 ml. strained rumen fluid, 200 mg, alfalfa hay, 800 mg. of a crude protein grain mixture, 0.8 to 1.6 mM of each of 10 essential amino acids (threonine, valine, methionine, isoleucine, leucine, phelylalanine, tryptophan, lysine and arginine), and 0 to 50 ppm dithiooxamide. Flasks were incubated for 4 hours with effects upon amino acid deamination assessed as described for the previous system. Using standard chromatographic techniques, effects upon methanogenesis and upon the pattern of volatile fatty acid production were determined.
# (§2) ^1 In vitro fermentation system contained 75 ml. strained rumen fluid
# (§3) 200 mg. alfalfa hay, 800 mg. grain mixture (16% crude protein) and 1.6 mM
# (§4) of each of ten essential amino acids. Flasks were incubated for four
# (§5) 200 mg. alfalfa hay, 800 mg. grain mixture (16% crude protein) and 0.8 mM
# [2] = test system: methanogenesis (strained rumen fluid); assay: In vitro effects upon methanogenesis; format: cell-based; conditions: Table III, dithiooxamide 0 ppm
# Method: as §1, §2, §3, §4, §5
# [3] = test system: volatile fatty acid production (strained rumen fluid); assay: In vitro volatile fatty acid production; format: cell-based; conditions: Table III, dithiooxamide 0 ppm; for Volatile Fatty Acids (molar distribution, %): Propionate: control 15; for Volatile Fatty Acids (molar distribution, %): Butyrate: control 21; for Volatile Fatty Acids (molar distribution, %): Acetate: control 64; for Volatile Fatty Acid Carbon: control 125
# Method: as §1, §2, §3, §4, §5
# [4] = test system: gas production (strained rumen fluid); assay: In vitro gas production; format: cell-based; conditions: Table III, dithiooxamide 0 ppm, control 65
# Method: as §1, §2, §5, §4
smiles,measurement,setting,value
CCC(=O)O [propionate],energy metabolites for protein deposition in sheep (in words),protein deposition,better energy metabolites than acetate for protein deposition in sheep
CSCC[C@H](N)C(=O)O [Methionine],quality of wool in sheep (in words),sheep,particularly useful in increasing the quality of wool in sheep
"O=S(=O)([O-])[O-].[Cu+2] [Copper Sulfate, reference compound]",MDI (%),[1]; copper sulfate .067 ppm,3%
same,MDI (%),[1]; copper sulfate .333 ppm,6%
same,Methane Inhibition (%),[2]; copper sulfate .067 ppm,-5%
same,Methane Inhibition (%),[2]; copper sulfate .333 ppm,-11%
same,"Volatile Fatty Acids (molar distribution, %): Propionate",[3]; copper sulfate .067 ppm,15%
same,"Volatile Fatty Acids (molar distribution, %): Butyrate",[3]; copper sulfate .067 ppm,21%
same,"Volatile Fatty Acids (molar distribution, %): Acetate",[3]; copper sulfate .067 ppm,64%
same,Volatile Fatty Acid Carbon,[3]; copper sulfate .067 ppm,123 μ moles/ml.
same,"Volatile Fatty Acids (molar distribution, %): Propionate",[3]; copper sulfate .333 ppm,15%
same,"Volatile Fatty Acids (molar distribution, %): Butyrate",[3]; copper sulfate .333 ppm,22%
same,"Volatile Fatty Acids (molar distribution, %): Acetate",[3]; copper sulfate .333 ppm,63%
same,Volatile Fatty Acid Carbon,[3]; copper sulfate .333 ppm,121 μ moles/ml.
same,Gas Production,[4]; copper sulfate .067 ppm,65 cc
same,Gas Production,[4]; copper sulfate .333 ppm,64 cc
"O=S(=O)([O-])[O-].[Co+2] [Cobalt Sulfate, reference compound]",MDI (%),[1]; cobalt sulfate .013 ppm,1%
same,MDI (%),[1]; cobalt sulfate .067 ppm,2%
same,Methane Inhibition (%),[2]; cobalt sulfate .013 ppm,1%
same,Methane Inhibition (%),[2]; cobalt sulfate .067 ppm,-5%
same,"Volatile Fatty Acids (molar distribution, %): Propionate",[3]; cobalt sulfate .013 ppm,15%
same,"Volatile Fatty Acids (molar distribution, %): Butyrate",[3]; cobalt sulfate .013 ppm,22%
same,"Volatile Fatty Acids (molar distribution, %): Acetate",[3]; cobalt sulfate .013 ppm,63%
same,Volatile Fatty Acid Carbon,[3]; cobalt sulfate .013 ppm,120 μ moles/ml.
same,"Volatile Fatty Acids (molar distribution, %): Propionate",[3]; cobalt sulfate .067 ppm,15%
same,"Volatile Fatty Acids (molar distribution, %): Butyrate",[3]; cobalt sulfate .067 ppm,22%
same,"Volatile Fatty Acids (molar distribution, %): Acetate",[3]; cobalt sulfate .067 ppm,63%
same,Volatile Fatty Acid Carbon,[3]; cobalt sulfate .067 ppm,127 μ moles/ml.
same,Gas Production,[4]; cobalt sulfate .013 ppm,65 cc
same,Gas Production,[4]; cobalt sulfate .067 ppm,65 cc
